Test results published in ChEMBL document CHEMBL4673358 (Bioorg Med Chem Lett, 2021).
Each block holds one compound with its values, some of them ahead of it. Active and inactive are the calls of the source. No cut-off for these calls is given here.

Tests used:
[1] = target: Tryptophan 2,3-dioxygenase (Homo sapiens, UniProt P48775); assay: Inhibition of TDO in HEK cells; type: cell-based
[2] = target: T1, Indoleamine 2,3-dioxygenase 1 (Homo sapiens, UniProt P14902); assay: Inhibition of IDO1 in human SKOV3 cells; type: cell-based, SK-OV-3
Target sequence in this assay (P14902 whole entry): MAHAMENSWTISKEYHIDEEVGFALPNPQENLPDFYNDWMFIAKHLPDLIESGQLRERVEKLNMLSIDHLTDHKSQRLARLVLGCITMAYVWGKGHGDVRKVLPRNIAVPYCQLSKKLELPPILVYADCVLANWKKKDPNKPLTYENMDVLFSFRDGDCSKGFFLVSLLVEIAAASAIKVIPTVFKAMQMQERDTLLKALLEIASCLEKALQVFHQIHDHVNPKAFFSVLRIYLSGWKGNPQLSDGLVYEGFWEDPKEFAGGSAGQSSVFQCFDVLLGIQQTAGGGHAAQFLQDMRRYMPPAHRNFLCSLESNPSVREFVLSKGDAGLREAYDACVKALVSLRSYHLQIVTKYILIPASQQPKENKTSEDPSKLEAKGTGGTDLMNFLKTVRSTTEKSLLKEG

[3] = Metabolic stability in human liver microsomes assessed as intrinsic clearance; type: ADME, Microsome; conditions: read-out: CLH
[4] = Metabolic stability in mouse liver microsomes assessed as intrinsic clearance; type: ADME, Microsome; conditions: read-out: CLH
[5] = target: T1, Indoleamine 2,3-dioxygenase 1; assay: Inhibition of IDO1 in human whole blood; type: tissue-based
Target sequence in this assay (P14902 whole entry): as above

[6] = target: T1, Indoleamine 2,3-dioxygenase 1; assay: Binding affinity to IDO1 (unknown origin) assessed as change in melting temperature at 5 uM by thermal shift assay
Target sequence in this assay (P14902 whole entry, looked up): as the sequence (P14902 whole entry) above

[7] = target: Indoleamine 2,3-dioxygenase 1 (Mus musculus, UniProt P28776); assay: Inhibition of mouse IDO1 expressed in HEK cells; type: cell-based
Chain of Indoleamine 2,3-dioxygenase 1 (Mus musculus, UniProt P28776) (P28776 whole entry): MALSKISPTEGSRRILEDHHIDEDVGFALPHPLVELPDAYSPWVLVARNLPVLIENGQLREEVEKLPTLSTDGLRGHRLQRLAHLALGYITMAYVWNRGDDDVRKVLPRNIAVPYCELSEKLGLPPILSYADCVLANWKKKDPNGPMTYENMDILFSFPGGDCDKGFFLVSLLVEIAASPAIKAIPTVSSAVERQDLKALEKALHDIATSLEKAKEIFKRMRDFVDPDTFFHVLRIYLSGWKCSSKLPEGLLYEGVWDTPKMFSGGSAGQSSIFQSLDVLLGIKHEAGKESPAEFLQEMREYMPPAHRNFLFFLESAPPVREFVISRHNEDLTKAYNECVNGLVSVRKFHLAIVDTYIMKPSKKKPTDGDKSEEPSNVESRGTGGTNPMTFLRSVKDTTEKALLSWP

[8] = target: Cytochrome P450 2C9 (Homo sapiens, UniProt P11712); assay: Inhibition of CYP2C9 (unknown origin); type: ADME
Chain of Cytochrome P450 2C9 (P11712 whole entry): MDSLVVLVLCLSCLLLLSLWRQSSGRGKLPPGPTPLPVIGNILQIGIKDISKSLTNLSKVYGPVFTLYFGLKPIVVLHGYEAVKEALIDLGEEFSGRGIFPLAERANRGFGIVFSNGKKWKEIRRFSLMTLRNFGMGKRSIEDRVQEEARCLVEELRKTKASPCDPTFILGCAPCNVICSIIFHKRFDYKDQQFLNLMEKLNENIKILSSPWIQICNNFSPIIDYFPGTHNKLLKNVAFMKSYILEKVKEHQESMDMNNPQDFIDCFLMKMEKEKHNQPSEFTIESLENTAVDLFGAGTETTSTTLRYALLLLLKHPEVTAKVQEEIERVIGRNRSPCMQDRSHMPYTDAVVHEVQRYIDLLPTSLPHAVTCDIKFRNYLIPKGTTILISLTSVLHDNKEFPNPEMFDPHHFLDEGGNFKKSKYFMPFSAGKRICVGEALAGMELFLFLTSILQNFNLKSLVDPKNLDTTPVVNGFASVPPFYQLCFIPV

[9] = target: T2, hERG (KCNH2) (Homo sapiens, UniProt Q12809); assay: Inhibition of human ERG at 10 uM relative to control
T2 sequence (Q12809 whole entry): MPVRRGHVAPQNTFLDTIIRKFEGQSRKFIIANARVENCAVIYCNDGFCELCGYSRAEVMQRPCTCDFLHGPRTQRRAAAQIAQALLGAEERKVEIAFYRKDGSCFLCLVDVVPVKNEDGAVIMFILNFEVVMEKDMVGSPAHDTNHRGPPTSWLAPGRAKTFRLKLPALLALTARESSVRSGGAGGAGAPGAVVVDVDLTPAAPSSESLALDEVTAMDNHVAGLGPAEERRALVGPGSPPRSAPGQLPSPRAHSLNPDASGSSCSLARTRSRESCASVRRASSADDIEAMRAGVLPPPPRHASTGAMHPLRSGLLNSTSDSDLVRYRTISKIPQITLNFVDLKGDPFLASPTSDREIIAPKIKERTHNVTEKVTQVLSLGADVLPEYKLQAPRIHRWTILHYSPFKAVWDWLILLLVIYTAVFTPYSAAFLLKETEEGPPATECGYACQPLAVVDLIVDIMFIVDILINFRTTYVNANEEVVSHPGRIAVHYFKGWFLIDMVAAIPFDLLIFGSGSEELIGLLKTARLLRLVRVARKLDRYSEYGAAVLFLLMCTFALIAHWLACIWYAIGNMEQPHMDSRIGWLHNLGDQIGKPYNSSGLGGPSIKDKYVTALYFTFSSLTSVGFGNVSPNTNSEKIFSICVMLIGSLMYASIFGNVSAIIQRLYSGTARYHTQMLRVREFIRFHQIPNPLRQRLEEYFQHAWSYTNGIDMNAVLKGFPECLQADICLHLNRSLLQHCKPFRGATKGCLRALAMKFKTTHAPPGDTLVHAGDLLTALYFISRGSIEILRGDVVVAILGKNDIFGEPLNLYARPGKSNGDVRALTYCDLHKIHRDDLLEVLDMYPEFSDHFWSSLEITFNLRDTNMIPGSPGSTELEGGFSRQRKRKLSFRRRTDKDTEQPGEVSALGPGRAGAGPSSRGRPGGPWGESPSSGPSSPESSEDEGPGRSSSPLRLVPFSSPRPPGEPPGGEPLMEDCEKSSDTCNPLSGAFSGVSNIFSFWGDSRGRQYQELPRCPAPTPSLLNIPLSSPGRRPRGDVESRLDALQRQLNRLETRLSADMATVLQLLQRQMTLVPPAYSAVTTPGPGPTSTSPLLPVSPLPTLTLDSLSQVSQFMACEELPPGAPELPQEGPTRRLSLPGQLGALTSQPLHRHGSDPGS

[10] = target: Indoleamine 2,3-dioxygenase 1 (Mus musculus) (UniProt P28776); assay: In vivo inhibition of IDO1 in mouse assessed as reduction in LPS-induced kynurenine level at 30 mg/kg, po administered as single dose measured after 36 hrs relative to control; type: functional, organism-based
Chain of Indoleamine 2,3-dioxygenase 1 (Mus musculus) (P28776 whole entry, looked up): as the sequence (P28776 whole entry) above

[11] = Metabolic stability in rat hepatocytes assessed as intrinsic clearance measured per million cells; type: ADME, cell-based, Hepatocyte; conditions: read-out: CLH
[12] = Plasma protein binding in human; type: ADME, cell-free; conditions: read-out: PPB
[13] = Metabolic stability in rat hepatocytes assessed as half life; type: ADME, cell-based, Hepatocyte
[14] = Half life in mouse at 10 mg/kg, po; type: ADME, organism-based; conditions: in vivo
[15] = Metabolic stability in human hepatocytes assessed as half life; type: ADME, cell-based, Hepatocyte
[16] = Cmax in rat at 10 mg/kg, po; type: ADME, organism-based; design: route oral, dose 10 mg/kg; conditions: in vivo
[17] = Half life in rat at 10 mg/kg, po; type: ADME, organism-based; conditions: in vivo
[18] = Metabolic stability in human hepatocytes assessed as intrinsic clearance measured per million cells; type: ADME, cell-based, Hepatocyte; conditions: read-out: CLH
[19] = target: Indoleamine 2,3-dioxygenase 1 (Mus musculus) (UniProt P28776); assay: In vivo inhibition of IDO1 in mouse assessed as reduction in kynurenine level; type: functional
[20] = target: Cytochrome P450 3A4 (Homo sapiens, UniProt P08684); assay: Inhibition of CYP3A4 (unknown origin); type: ADME
Chain of Cytochrome P450 3A4 (P08684 whole entry): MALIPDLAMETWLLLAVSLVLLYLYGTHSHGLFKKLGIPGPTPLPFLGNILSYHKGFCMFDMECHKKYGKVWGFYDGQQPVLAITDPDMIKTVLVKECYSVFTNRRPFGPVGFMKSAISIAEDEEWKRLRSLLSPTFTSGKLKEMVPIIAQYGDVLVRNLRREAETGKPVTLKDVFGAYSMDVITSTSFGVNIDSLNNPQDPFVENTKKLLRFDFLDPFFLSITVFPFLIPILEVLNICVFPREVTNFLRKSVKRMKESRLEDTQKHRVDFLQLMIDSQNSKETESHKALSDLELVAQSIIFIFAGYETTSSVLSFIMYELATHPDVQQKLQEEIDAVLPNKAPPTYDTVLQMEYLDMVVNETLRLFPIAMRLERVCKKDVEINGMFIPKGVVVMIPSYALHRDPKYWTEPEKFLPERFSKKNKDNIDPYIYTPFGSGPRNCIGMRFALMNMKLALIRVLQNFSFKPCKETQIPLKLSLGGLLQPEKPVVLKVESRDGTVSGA

[21] = Metabolic stability in mouse hepatocytes assessed as half life; type: ADME, cell-based, Hepatocyte
[22] = AUC(0 to 72 hrs) in mouse at 10 mg/kg, po; type: ADME, organism-based; design: time < 72 hr, route oral, dose 10 mg/kg; conditions: in vivo
[23] = target: T2, hERG (KCNH2); assay: Inhibition of human ERG assessed as reduction in channel tail current at 10 uM by patch clamp assay relative to control
[24] = Cmax in mouse at 10 mg/kg, po; type: ADME, organism-based; design: route oral, dose 10 mg/kg; conditions: in vivo
[25] = AUC(0 to 72 hrs) in rat at 10 mg/kg, po; type: ADME, organism-based; design: time < 72 hr, route oral, dose 10 mg/kg; conditions: in vivo
[26] = Metabolic stability in mouse hepatocytes assessed as intrinsic clearance measured per million cells; type: ADME, cell-based, Hepatocyte; conditions: read-out: CLH
[27] = Plasma protein binding in mouse; type: ADME, cell-free; conditions: read-out: PPB (converted)
[28] = AUC(0 to 24 hrs) in mouse at 10 mg/kg, po; type: ADME, organism-based; design: time < 24 hr, route oral, dose 10 mg/kg; conditions: in vivo

Chain of Tryptophan 2,3-dioxygenase (P48775 whole entry): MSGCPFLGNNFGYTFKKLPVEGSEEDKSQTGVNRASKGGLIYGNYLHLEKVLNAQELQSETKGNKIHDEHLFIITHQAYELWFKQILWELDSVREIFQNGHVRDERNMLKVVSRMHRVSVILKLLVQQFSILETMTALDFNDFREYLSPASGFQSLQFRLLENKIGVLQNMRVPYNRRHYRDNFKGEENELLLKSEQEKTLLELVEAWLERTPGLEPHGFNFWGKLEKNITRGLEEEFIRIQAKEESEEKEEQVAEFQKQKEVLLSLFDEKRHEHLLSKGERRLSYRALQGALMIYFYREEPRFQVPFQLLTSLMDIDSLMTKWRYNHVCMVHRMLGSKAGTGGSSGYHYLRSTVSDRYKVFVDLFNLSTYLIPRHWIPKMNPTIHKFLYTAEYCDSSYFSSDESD

SMILES: C[C@H](C(=O)Nc1ccc(Cl)cc1)[C@H]1CC[C@]2(CC1)COc1nc(C(F)(F)F)ccc12
IC50 [1]: 7100 nM
IC50 [2]: 5.4 nM
microsomal CLint [3]: 1.6 µL/min/mg
microsomal CLint [4]: 3.5 µL/min/mg

SMILES: O=C(Nc1ccc(Cl)cc1)C(CCO)N1CCC2(CC1)COc1cc(C(F)(F)F)ccc12 (stereo not drawn)
IC50 [1]: 9500 nM
IC50 [2]: 86 nM

SMILES: CC(C(=O)Nc1ccc(Cl)cc1)C1CCC2(CC1)c1ccc(C(F)(F)F)cc1CN2C (stereo not drawn)
IC50 [1]: 7100 nM
IC50 [2]: 8.3 nM
microsomal CLint [3]: 1.4 µL/min/mg
microsomal CLint [4]: 9.5 µL/min/mg

SMILES: CC[C@H](C(=O)Nc1ccc(Cl)cc1)N1CCC2(CC1)COc1cc(C(F)(F)F)ccc12 (stereo in doubt)
IC50 [1]: 15500 nM
IC50 [2]: 109 nM
microsomal CLint [3]: 17 µL/min/mg
microsomal CLint [4]: 48 µL/min/mg

SMILES: CC[C@@H](C(=O)Nc1ccc(Cl)cc1)N1CCC2(CC1)COc1cc(C(F)(F)F)ccc12 (stereo in doubt)
ΔTm [6]: 15.2 °C
IC50 [7]: 38 nM
IC50 [1]: 11400 nM
IC50 [2]: 12 nM
microsomal CLint [3]: 22 µL/min/mg
microsomal CLint [4]: 53 µL/min/mg
IC50 [8]: 5000 nM
inhibition at 10 µM [9]: 85%
IC50 [5]: 360 nM

SMILES: O=C(Nc1ccc(Cl)cc1)C(=O)N1CCC2(CC1)COc1cc(C(F)(F)F)ccc12
IC50 [2]: 32 nM
IC50 [5]: 1700 nM

SMILES: C[C@H](C(=O)Nc1ccc(Cl)cc1)[C@H]1CC[C@]2(CC1)COc1cc(C(F)(F)F)ccc12
inhibition [10]: Active
hepatocyte CLint [11]: 5.6 µL/min/1e6 cells
ΔTm [6]: 17.8 °C
fraction unbound [12]: 0.001
IC50 [7]: 7.8 nM
IC50 [1]: 7300 nM
half-life [13]: 2.08 h
half-life [14]: 115 h
IC50 [2]: 3.9 nM
half-life [15]: 2.92 h
microsomal CLint [3]: < 1 µL/min/mg
microsomal CLint [4]: < 1 µL/min/mg
Cmax [16]: 580 nM
half-life [17]: 49 h
hepatocyte CLint [18]: 4 µL/min/1e6 cells
inhibition [19]: inactive
IC50 [20]: 3100 nM
half-life [21]: 6.65 h
AUC(0-t) at 72 h [22]: 105 µM·h
inhibition at 10 µM [9]: 67%
inhibition at 10 µM [23]: 44%
Cmax [24]: 2880 nM
AUC(0-t) at 72 h [25]: 18.2 µM·h
hepatocyte CLint [26]: 1.7 µL/min/1e6 cells
fraction unbound [27]: 0.005
IC50 [5]: 52 nM

SMILES: CC[C@H](C(=O)Nc1ccc(Cl)cn1)[C@H]1CC[C@]2(CC1)COc1cc(C(F)(F)F)ccc12
IC50 [1]: 26400 nM
IC50 [2]: 7 nM
microsomal CLint [3]: 5.9 µL/min/mg
microsomal CLint [4]: 30 µL/min/mg
IC50 [5]: 320 nM

SMILES: CC(C(=O)Nc1ccc(Cl)cc1)N1CCC2(CC1)COc1cc(C(F)(F)F)ccc12 (racemic)
IC50 [1]: 35600 nM
IC50 [2]: 22 nM
microsomal CLint [3]: 11 µL/min/mg
microsomal CLint [4]: 56 µL/min/mg
IC50 [5]: 1320 nM

SMILES: C[C@@H](C(=O)Nc1ccc(Cl)cc1)[C@H]1CC[C@@H](c2ccnc3ccc(F)cc32)CC1
AUC(0-t) at 24 h [28]: 9.3 µM·h
inhibition [10]: Active
half-life [14]: 2.5 h
half-life [15]: 2.55 h
hepatocyte CLint [18]: 4.5 µL/min/1e6 cells
Cmax [24]: 2000 nM

SMILES: O=C(Nc1ccc(Cl)cc1)C(CC1CC1)N1CCC2(CC1)COc1cc(C(F)(F)F)ccc12 (stereo not drawn)
IC50 [1]: 15900 nM
IC50 [2]: 4.4 nM
microsomal CLint [3]: 13 µL/min/mg
microsomal CLint [4]: 14 µL/min/mg
IC50 [5]: 300 nM

SMILES: CC(C)(C(=O)Nc1ccc(Cl)cc1)N1CCC2(CC1)COc1cc(C(F)(F)F)ccc12
IC50 [1]: 47900 nM
IC50 [2]: 11 nM
microsomal CLint [3]: 34 µL/min/mg
microsomal CLint [4]: 117 µL/min/mg

SMILES: O=C(CN1CCC2(CC1)COc1cc(C(F)(F)F)ccc12)Nc1ccc(Cl)cc1
IC50 [1]: 25700 nM
IC50 [2]: 260 nM

Next, values leading:

IC50 [1]: 11800 nM
IC50 [2]: 12 nM
microsomal CLint [3]: 22 µL/min/mg
microsomal CLint [4]: 39 µL/min/mg
IC50 [5]: 360 nM
SMILES: CCC(C(=O)Nc1ccc(Cl)cc1)N1CCC2(CCOc3cc(C(F)(F)F)ccc32)CC1 (stereo not drawn)

IC50 [1]: 39000 nM
IC50 [2]: 39 nM
microsomal CLint [3]: 326 µL/min/mg
microsomal CLint [4]: 668 µL/min/mg
SMILES: CC(C(=O)Nc1ccc(Cl)cc1)N1CCC2(CCc3ccccc32)CC1 (racemic)

IC50 [1]: 18400 nM
IC50 [2]: 7.9 nM
microsomal CLint [3]: 3 µL/min/mg
microsomal CLint [4]: 19 µL/min/mg
SMILES: C[C@H](C(=O)Nc1ccc(Cl)cc1)[C@H]1CC[C@]2(CC1)COc1ncc(C(F)(F)F)cc12

IC50 [1]: 10500 nM
IC50 [2]: 69 nM
microsomal CLint [3]: 3.7 µL/min/mg
microsomal CLint [4]: 4.5 µL/min/mg
SMILES: C[C@@H](C(=O)Nc1ccc(Cl)cc1)[C@H]1CC[C@]2(CC1)COc1cc(C(F)(F)F)ccc12

IC50 [2]: 15 nM
IC50 [5]: 1600 nM
SMILES: O=C(Nc1ccc(Cl)cc1)C(=O)N1CCC(c2ccnc3ccc(F)cc23)CC1

IC50 [1]: 7800 nM
IC50 [2]: 5.1 nM
microsomal CLint [3]: 67 µL/min/mg
microsomal CLint [4]: 193 µL/min/mg
IC50 [5]: 51 nM
SMILES: C[C@H](C(=O)Nc1ccc(Cl)cc1)[C@H]1CC[C@@]2(CC1)COc1cc(C(F)(F)F)ccc12

IC50 [1]: 42800 nM
IC50 [2]: 670 nM
SMILES: O=C(CN1CCC2(CCc3ccccc32)CC1)Nc1ccc(Cl)cc1

IC50 [1]: 10300 nM
IC50 [2]: 6.6 nM
microsomal CLint [3]: 43 µL/min/mg
microsomal CLint [4]: 92 µL/min/mg
SMILES: C[C@@H](C(=O)Nc1ccc(Cl)cc1)[C@H]1CC[C@@]2(CC1)COc1cc(C(F)(F)F)ccc12
